Test results published in patent US4112228A, “7-(D-α-Hydroxy-2-arylacetamido)-3-(2-carboxyalkyl-2,3-dihydro-s-tri azolo-[4,3-b]pyridazin-3-on-6-ylthiomethyl)-3-cephem-4-carboxylic acids and derivatives” (priority 1977, dated 1978).
Converted amounts (≈) assume the structure as drawn. Read-outs that look alike come from different tables or passages of the source.

Tests used:
S. aureus = assay: MIC by Steers' agar dilution method; format: cell-based; settings: Staphylococcus aureus
E. coli = assay: MIC by Steers' agar dilution method; format: cell-based; settings: Escherichia coli

O=C(O)Cn1nc2ccc(SCC3=C(C(=O)O)N4C(=O)C(NC(=O)[C@H](O)c5ccccc5)[C@H]4SC3)nn2c1=O (stereo partly drawn) [BB-S488, 7-(D-Mandelamido)-3-(2-carboxymethyl-2,3-dihydro-s-triazolo[4,3-b]pyridazin-3-on-6-ylthiomethyl)-3-cephem-4-carboxylic Acid]
MIC (S. aureus; A9497, MHA, Table 1): 0.1 µg/mL (≈ 0.175 µM) | MIC (S. aureus; BX-1633, MHA, Example 10): 3.1 µg/mL (≈ 5.41 µM) | MIC (S. aureus; BX-1633 A9606, MHA, Table 1): 0.4 µg/mL (≈ 0.699 µM) | MIC (S. aureus; Sa-2 Smith A9537, HIA, Table 4): 0.8 µg/mL (≈ 1.4 µM) | MIC (S. aureus; Sa-2 Smith A9537, MHA, Table 2): 0.4 µg/mL (≈ 0.699 µM) | MIC (S. aureus; Sa-2 Smith A9537, MHA, Table 4): 0.8 µg/mL (≈ 1.4 µM) | MIC (S. aureus; Sa-2 Smith A9537, NA, Table 4): 0.8 µg/mL (≈ 1.4 µM) | MIC (S. aureus; Sa-3 No. 193, MHA, Table 2): 0.8 µg/mL (≈ 1.4 µM) | MIC (S. aureus; Sa-8, MHA, Table 2): 0.4 µg/mL (≈ 0.699 µM) | MIC (S. aureus; Sa-9 No. 193, MHA, Table 2): 0.8 µg/mL (≈ 1.4 µM) | MIC (S. aureus; Sa-10 A20239, MHA, Table 2): 1.6 µg/mL (≈ 2.79 µM) | MIC (S. aureus; Sa-11 BX-1633 A9606 (β-lactamase), HIA, Table 4): 1.6 µg/mL (≈ 2.79 µM) | MIC (S. aureus; Sa-11 BX-1633 A9606 (β-lactamase), MHA, Table 4): 0.8 µg/mL (≈ 1.4 µM) | MIC (S. aureus; Sa-11 BX-1633 A9606 (β-lactamase), NA, Table 4): 3.1 µg/mL (≈ 5.41 µM) | MIC (S. aureus; Sa-11 BX-1633 A9606, MHA, Table 2): 0.4 µg/mL (≈ 0.699 µM) | MIC (S. aureus; Sa-12 A9497, MHA, Table 2): 0.2 µg/mL (≈ 0.349 µM) | MIC (S. aureus; Sa-29 No. 193, MHA, Table 2): 1.6 µg/mL (≈ 2.79 µM) | MIC (S. aureus; Sa-33 Terajima, MHA, Table 2): 0.0125 µg/mL (≈ 0.0218 µM) | MIC (S. aureus; Sa-34 A15092, MHA, Table 2): 0.8 µg/mL (≈ 1.4 µM) | MIC (S. aureus; Sa-35 A15094, MHA, Table 2): 0.8 µg/mL (≈ 1.4 µM) | MIC (S. aureus; Sa-36 Russell, MHA, Table 2): 0.8 µg/mL (≈ 1.4 µM) | MIC (S. aureus; Sa-37 A9524, MHA, Table 2): 1.6 µg/mL (≈ 2.79 µM) | MIC (S. aureus; Sa-38 A9534, MHA, Table 2): 0.4 µg/mL (≈ 0.699 µM) | MIC (S. aureus; Sa-39 A9578, MHA, Table 2): 0.8 µg/mL (≈ 1.4 µM) | MIC (S. aureus; Sa-40 A9601, MHA, Table 2): 0.8 µg/mL (≈ 1.4 µM) | MIC (S. aureus; Sa-41 A9602, MHA, Table 2): 0.8 µg/mL (≈ 1.4 µM) | MIC (S. aureus; Sa-44 A15097, HIA, Table 4): > 100 µg/mL | MIC (S. aureus; Sa-44 A15097, MHA, Table 2): 25 µg/mL (≈ 43.7 µM) | MIC (S. aureus; Sa-44 A15097, MHA, Table 4): 100 µg/mL (≈ 175 µM) | MIC (S. aureus; Sa-44 A15097, NA, Table 4): > 100 µg/mL | MIC (S. aureus; Sa-56 A9630, MHA, Table 2): 3.1 µg/mL (≈ 5.41 µM) | MIC (S. aureus; Sa-57 A9748, MHA, Table 2): 25 µg/mL (≈ 43.7 µM) | MIC (S. aureus; Sa-58 A15033, MHA, Table 2): 12.5 µg/mL (≈ 21.8 µM) | MIC (S. aureus; Sa-59 A15096, MHA, Table 2): 100 µg/mL (≈ 175 µM) | MIC (S. aureus; Sa-60 A20604, MHA, Table 2): 50 µg/mL (≈ 87.3 µM) | MIC (S. aureus; Sa-61 A20605, MHA, Table 2): 100 µg/mL (≈ 175 µM) | MIC (S. aureus; Sa-62 A20606, MHA, Table 2): 3.1 µg/mL (≈ 5.41 µM) | MIC (S. aureus; Sa-63 A20607, MHA, Table 2): > 100 µg/mL | MIC (S. aureus; Sa-64 A20608, MHA, Table 2): 100 µg/mL (≈ 175 µM) | MIC (S. aureus; Sa-65 A20609, MHA, Table 2): 100 µg/mL (≈ 175 µM) | MIC (S. aureus; Sa-66 A20610, MHA, Table 2): 100 µg/mL (≈ 175 µM) | MIC (S. aureus; Sa-67 A20611, MHA, Table 2): 100 µg/mL (≈ 175 µM) | MIC (S. aureus; Sa-68 A20612, MHA, Table 2): 1.6 µg/mL (≈ 2.79 µM) | MIC (S. aureus; Sa-69 A20613, MHA, Table 2): 100 µg/mL (≈ 175 µM) | MIC (S. aureus; Smith A9537, MHA, Table 1): 0.2 µg/mL (≈ 0.349 µM) | MIC (S. aureus; Smith, MHA, Example 10): 0.8 µg/mL (≈ 1.4 µM) | MIC (S. aureus; strain not named, MHA, Example 10): 0.4 µg/mL (≈ 0.699 µM) | MIC (E. coli; A9660, MHA, Table 1, read-out: MIC): 0.05 µg/mL (≈ 0.0873 µM) | MIC (E. coli; A15147, MHA, Table 1, read-out: MIC): 3.1 µg/mL (≈ 5.41 µM) | MIC (E. coli; A15810, MHA, Table 1, read-out: MIC): 0.1 µg/mL (≈ 0.175 µM) | MIC (E. coli; ATCC8739, ATCC 8739, MHA, Example 10): 6.3 µg/mL (≈ 11 µM) | MIC (E. coli; ATCC8739, ATCC 8739, MHA, Table 1, read-out: MIC): 0.1 µg/mL (≈ 0.175 µM) | MIC (E. coli; ATCC8739, Ec-15 ATCC 8739, HIA, Table 4, read-out: MIC): 0.2 µg/mL (≈ 0.349 µM) | MIC (E. coli; ATCC8739, Ec-15 ATCC 8739, MHA, Table 3, read-out: MIC): 0.2 µg/mL (≈ 0.349 µM) | MIC (E. coli; ATCC8739, Ec-15 ATCC 8739, MHA, Table 4, read-out: MIC): 0.2 µg/mL (≈ 0.349 µM) | MIC (E. coli; ATCC8739, Ec-15 ATCC 8739, NA, Table 4, read-out: MIC): 0.1 µg/mL (≈ 0.175 µM) | MIC (E. coli; BX-1373, MHA, Example 10, read-out: MIC): 3.1 µg/mL (≈ 5.41 µM) | MIC (E. coli; BX-1373, MHA, Table 1, read-out: MIC): 0.2 µg/mL (≈ 0.349 µM) | MIC (E. coli; Ec-1 NIHJ, HIA, Table 4, read-out: MIC): 0.05 µg/mL (≈ 0.0873 µM) | MIC (E. coli; Ec-1 NIHJ, MHA, Table 3, read-out: MIC): 0.2 µg/mL (≈ 0.349 µM) | MIC (E. coli; Ec-1 NIHJ, MHA, Table 4, read-out: MIC): 0.05 µg/mL (≈ 0.0873 µM) | MIC (E. coli; Ec-1 NIHJ, NA, Table 4, read-out: MIC): 0.1 µg/mL (≈ 0.175 µM) | MIC (E. coli; Ec-3 Juhl A15119, HIA, Table 4, read-out: MIC): 0.4 µg/mL (≈ 0.699 µM) | MIC (E. coli; Ec-3 Juhl A15119, MHA, Table 3, read-out: MIC): 0.2 µg/mL (≈ 0.349 µM) | MIC (E. coli; Ec-3 Juhl A15119, MHA, Table 4, read-out: MIC): 0.2 µg/mL (≈ 0.349 µM) | MIC (E. coli; Ec-3 Juhl A15119, NA, Table 4, read-out: MIC): 0.2 µg/mL (≈ 0.349 µM) | MIC (E. coli; Ec-4 A15169, MHA, Table 3, read-out: MIC): 12.5 µg/mL (≈ 21.8 µM) | MIC (E. coli; Ec-5 K-12, ML-1630 A20363, MHA, Table 3, read-out: MIC): 0.2 µg/mL (≈ 0.349 µM) | MIC (E. coli; Ec-11 A20366 (β-lactamase), HIA, Table 4, read-out: MIC): > 100 µg/mL | MIC (E. coli; Ec-11 A20366 (β-lactamase), MHA, Table 4, read-out: MIC): > 100 µg/mL | MIC (E. coli; Ec-11 A20366 (β-lactamase), NA, Table 4, read-out: MIC): > 100 µg/mL | MIC (E. coli; Ec-11 A20366, MHA, Table 3, read-out: MIC): 50 µg/mL (≈ 87.3 µM) | MIC (E. coli; Ec-34 A9660, MHA, Table 3, read-out: MIC): 0.1 µg/mL (≈ 0.175 µM) | MIC (E. coli; Ec-35 A9435, MHA, Table 3, read-out: MIC): 0.4 µg/mL (≈ 0.699 µM) | MIC (E. coli; Ec-36 A15147 (β-lactamase), HIA, Table 4, read-out: MIC): 6.3 µg/mL (≈ 11 µM)
